Results reported in patent US4241083A, “Germicidal composition for agriculture and horticulture” (priority 1978, dated 1980).

Tests used:
apple canker = settings: cited from earlier work
Sphaerotheca humuli = test: Prevention effect for powdery mildew on strawberries (Ex. 22); format: in vivo; settings: for Germicidal damage to seedlings: strawberry seedlings; for Percentage of leaf area with disease spots / Percentage of leaves attacked with the disease / Prevention value per leaf (Perfect prevention = 100): third and ninth days, read fifteenth day after inoculation
Text: The prevention effect for powdery mildew on strawberries caused by Sphaerotheca humuli was examined in the following manner.
Strawberry seedlings (3-4 leaves) of Danar variety dug up and planted in a pot in two row of three without drying the roots was inoculated with the above germ by brushing on the spores from a strawberry leaves attacked with powdery mildew.
An aqueous solution of sec-butyl 2-(2-hydroxyethylamino)-3-benzoylpropionate hydrochloride was sprayed on the test plant on the third and ninth days after the seedlings were inoculated with the germ.
(§1) The leaf area on which powdery mildew spots appeared was measured on the fifteenth day after the seedlings were inoculated with the germ. The spotted area is expressed as a prevention value.

Sphaerotheca fuliginea = test: Prevention effect for powdery mildew on cucumbers (Ex. 20, 21); format: in vivo; settings: Table 6; for Germicidal damage to seedlings: cucumber seedlings; for Percentage of leaf area with disease spots / Percentage of leaves attacked with the disease / Prevention value per leaf (Perfect prevention = 100): third and ninth days, read fifteenth day after inoculation
Method: The prevention effect for powdery mildew on cucumbers caused by Sphaerotheca fuliginea was examined in the following manner.
Cucumber seedlings (bifoliate age) of Tokiwa Hikari No. 3 (p type) variety planted in sections of two rows of three were inoculated with the above germ by brushing on spores from a cucumber leaf attacked with powdery mildew. […]
The leaf area on which powdery mildew spots appeared was measured on the fifteenth day after the seedlings were inoculated with the germ. The spotted area is expresses as a prevention value.
The same experiment as Example 20 was carried out except that isopropyl 2-(2-hydroxyethylamino)-3-benzoyl-propionate hydrochloride was used instead of ethyl 2-(2-hydroxyethylamino)-3-benzoylpropionate hydrochloride.

Erysiphe cichoracearum = test: Prevention effect for powdery mildew on eggplants (Ex. 23); format: in vivo; settings: emulsion; for Germicidal damage to seedlings: eggplant seedlings; for Percentage of leaf area with disease spots / Percentage of leaves attacked with the disease / Prevention value per leaf (Perfect prevention = 100): third or ninth days, read fifteenth day after inoculation
Method: The emulsion was prepared by blending 25 g of ethyl 2-(2-hydroxyethylamino)-3-benzoylpropionate, 25 ml of isopropanol, 3 g of Demol T (formalin condensed naphthalenesulfonate available from Kao Sekken Inc.), 2 g of Emal 10 (sodium lauryl sulphate available from Kao Sekken Inc.) and 45 g of water.
The prevention effect of the emulsion prepared above for powdery mildew on eggplants caused by Erysiphe cichoracearum was examined in the following manner.
Eggplant seedlings of Shinkitsushin variety planted in sections in two rows of three were inoculated with the above germ by brushing on spores from other eggplant leaf attacked with the powdery mildew.
An aqueous solution of ethyl 2-(2-hydroxyethylamino)-3-benzoylpropionate (2000 ppm and 2500 ppm) was sprayed on the test plant on the third or ninth days after the seedlings were inoculated with the germ by means of glass sprayer.
as §1

[1] = Toxicity, LD50 for a mouse; settings: in vivo
Toxicity, LD50 for a rat = settings: in vivo
Valsa ceratosperma = test: Length of disease spots on cut apple branches immersed in germicide before inoculation (Ex. 16); format: in vivo; settings: 25° C.
Method: Branches of Delicious apple (branch diameter: about 1 cm. thick) grown for 1-2 years were cut to 10 cm. length. The cut branches were dried in a low temperature chamber (3° C.) until the water content of the cut branches became 50%. The dried cut branches were immersed in an aqueous solution of ethyl 2-(2-hydroxyethylamino)-3-benzoylpropionate hydrochloride (500 ppm, 1000 ppm and 2500 ppm) for one minute and then dried.
Each cut branch was end bored by a white heated 8 mm diameter cork borer. Valsa ceratosperma, previously cultured for four days on a potato dextrose-agar culture medium, was introduced into the branch by inoculating the branch with the Valsa ceratosperma containing culture by means of the sterilized cork borer. The branches prepared in this way were placed on wet filter paper spread in a polyethylene tray. The tray was inserted into a polyethylene bag which was sealed and then the bag was put into a thermostat (25° C.) for various controlled times.
After removal from the thermostat, the length of disease spots on each branch was measured.
A similar experiment for comparison was carried out using Benomyl, i.e. methyl-1-(buthylcarbamoyl)-2-benzimidazole carbamate as the germicide. The results of the comparative experiment and also a control experiment, in which the dried cut branches were not immersed in germicide (blank), are also shown in Table 2.

SMILES: COC(=O)NC(=S)Nc1ccccc1NC(=S)NC(=O)OC [thiophanate methyl, 1,2-bis(3-methylcarbonyl-2-thioureido)]
- effect after the canker attacks (apple canker): can only weakly prevent the progress of the disease

SMILES: CCC(C)OC(=O)C(CC(=O)c1ccccc1)NCCO.Cl (stereo not drawn) [sec-butyl 2-(2-hydroxyethylamino)-3-benzoylpropionate hydrochloride]
- Germicidal damage to seedlings (Sphaerotheca humuli; 1000 ppm): none
- Percentage of leaf area with disease spots (Sphaerotheca humuli; 1000 ppm): 46.1%
- Percentage of leaves attacked with the disease (Sphaerotheca humuli; 1000 ppm): 83.3%
- Prevention value per leaf (Perfect prevention = 100) (Sphaerotheca humuli; 1000 ppm): 40.4
- Germicidal damage to seedlings (Sphaerotheca humuli; 2000 ppm): none
- Percentage of leaf area with disease spots (Sphaerotheca humuli; 2000 ppm): 0%
- Percentage of leaves attacked with the disease (Sphaerotheca humuli; 2000 ppm): 0%
- Prevention value per leaf (Perfect prevention = 100) (Sphaerotheca humuli; 2000 ppm): 100
- Germicidal damage to seedlings (Sphaerotheca humuli; 3000 ppm): none
- Percentage of leaf area with disease spots (Sphaerotheca humuli; 3000 ppm): 0%
- Percentage of leaves attacked with the disease (Sphaerotheca humuli; 3000 ppm): 0%
- Prevention value per leaf (Perfect prevention = 100) (Sphaerotheca humuli; 3000 ppm): 100

SMILES: CC(C)OC(=O)C(CC(=O)c1ccccc1)NCCO.Cl (stereo not drawn) [isopropyl 2-(2-hydroxyethylamino)-3-benzoyl-propionate hydrochloride]
- Germicidal damage to seedlings (Sphaerotheca fuliginea; 1500 ppm): none
- Percentage of leaf area with disease spots (Sphaerotheca fuliginea; 1500 ppm): 8.9%
- Percentage of leaves attacked with the disease (Sphaerotheca fuliginea; 1500 ppm): 55.6%
- Prevention value per leaf (Perfect prevention = 100) (Sphaerotheca fuliginea; 1500 ppm): 88.5
- Germicidal damage to seedlings (Sphaerotheca fuliginea; 2000 ppm): none
- Percentage of leaf area with disease spots (Sphaerotheca fuliginea; 2000 ppm): 0%
- Percentage of leaves attacked with the disease (Sphaerotheca fuliginea; 2000 ppm): 0%
- Prevention value per leaf (Perfect prevention = 100) (Sphaerotheca fuliginea; 2000 ppm): 100
- Germicidal damage to seedlings (Sphaerotheca fuliginea; 2500 ppm): none
- Percentage of leaf area with disease spots (Sphaerotheca fuliginea; 2500 ppm): 0%
- Percentage of leaves attacked with the disease (Sphaerotheca fuliginea; 2500 ppm): 0%
- Prevention value per leaf (Perfect prevention = 100) (Sphaerotheca fuliginea; 2500 ppm): 100

SMILES: CCOC(=O)C(CC(=O)c1ccccc1)NCCO (stereo not drawn) [ethyl 2-(2-hydroxyethylamino)-3-benzoylpropionate]
- Germicidal damage to seedlings (Erysiphe cichoracearum; 2000 ppm): none
- Percentage of leaf area with disease spots (Erysiphe cichoracearum; 2000 ppm): 0%
- Percentage of leaves attacked with the disease (Erysiphe cichoracearum; 2000 ppm): 0%
- Prevention value per leaf (Perfect prevention = 100) (Erysiphe cichoracearum; 2000 ppm): 100
- Germicidal damage to seedlings (Erysiphe cichoracearum; 2500 ppm): none
- Percentage of leaf area with disease spots (Erysiphe cichoracearum; 2500 ppm): 0%
- Percentage of leaves attacked with the disease (Erysiphe cichoracearum; 2500 ppm): 0%
- Prevention value per leaf (Perfect prevention = 100) (Erysiphe cichoracearum; 2500 ppm): 100
- LD50 [1]: 7600 mg/kg
- LD50 (Toxicity, LD50 for a rat): 4790 mg/kg

SMILES: CCCCNC(=O)n1c(NC(=O)OC)nc2ccccc21 [methyl-1-(buthylcarbamoyl)-2-benzimidazole carbamate, reference compound]
- Length of disease spot (Valsa ceratosperma; 500 ppm, after 3 days): 1.0 mm
- Length of disease spot (Valsa ceratosperma; 500 ppm, after 5 days): 1.0 mm
- Length of disease spot (Valsa ceratosperma; 500 ppm, after 7 days): 1.8 mm
- Length of disease spot (Valsa ceratosperma; 1000 ppm, after 3 days): 0.5 mm
- Length of disease spot (Valsa ceratosperma; 1000 ppm, after 5 days): 0.5 mm
- Length of disease spot (Valsa ceratosperma; 1000 ppm, after 7 days): 1.0 mm
- Length of disease spot (Valsa ceratosperma; 2500 ppm, after 3 days): 0 mm
- Length of disease spot (Valsa ceratosperma; 2500 ppm, after 5 days): 0 mm
- Length of disease spot (Valsa ceratosperma; 2500 ppm, after 7 days): 0 mm
- effect after the canker attacks (apple canker): can only weakly prevent the progress of the disease
